Assay results: PubChem BioAssay AID720577 (The Scripps Research Institute Molecular Screening Center, 2013)
Where “and” joins values, the source holds several entries; their conditions need not be identical. Identical values can stand only once. Calls of active or inactive are those of the source. How the calls were made is not given here.

Molecular target: CCHF virus vOTU protease domain (L polyprotein)
Test: CCHF virus vOTU protease inhibition, Pep AMC substrate counterscreen, fluorescence, confirmatory IC50 (AID 720577)
Settings: purified vOTU

Structure (SMILES) | IC50
CCCCCCCCCCCCCCCC[n+]1ccccc1 | 7.79 µM and 8.46 µM and 6.99 µM
CCOC(=O)/C=C(\C)Sc1cc(O)c2ccccc2c1O | 4.61 µM
NC1=C(Cl)C(=O)c2ccc(S(N)(=O)=O)cc2C1=O | 0.387 µM
CCCCCCCCCCCCN1[C@@H](CC(=O)O)c2cc(F)ccc2S1(=O)=O | inactive
CC(=O)c1ccc(NC(=S)Nc2cccc3cnccc23)cc1 | 7.69 µM
C=CCN(CC=C)C(=S)Nc1ccc2nsnc2c1 | inactive
N#CC1=C(S)N(c2ccccc2)C(c2ccc(-c3ccc(Cl)c(Cl)c3)o2)NC1=O (stereo unspecified) | > 115 µM (inactive)
CCOC(=O)C1CCN(C(=O)c2c(C)oc3c2C(=O)c2ccccc2C3=O)CC1 | inactive
CC(=O)[C@H]1[C@@H]2C(=O)N(c3cccc(Cl)c3)C(=O)[C@@H]2[C@H]2c3ccccc3C=CN21 | inactive
Cc1cccc(NC(=O)c2sc3nc4c(c(-c5cccs5)c3c2N)CN(C)CC4)c1 | inactive
CNc1ccc2nc3ccccc3[n+](C)c2c1 | inactive
Cc1ccc(NC2=C(N3CCOCC3)C(=O)c3ccccc3C2=O)cc1 | inactive
c1coc(-c2nnc(-c3ccco3)nn2)c1 | inactive
O=C(COC(=O)c1ccc([N+](=O)[O-])s1)Nc1ccccc1 | inactive
CC(C)NC1=C(Cl)C(=O)c2ccccc2C1=O | inactive
CC(=O)N(C1=C(Cl)C(=O)c2ccccc2C1=O)C1CCCCC1 | inactive
O=C(OCc1nnc(-c2ccccc2)o1)c1ccc([N+](=O)[O-])s1 | inactive
CC(C)C[C@H](NC(=O)c1[nH]cnc1C(=O)N[C@@H](C)C(=O)OC(C)(C)C)C(=O)OC(C)(C)C | inactive
O=C1Cc2ccccc2C(=O)N1 | 0.597 µM
CC(=O)c1ccc(NC2=C(N3CCOCC3)C(=O)c3ccccc3C2=O)cc1 | inactive
COc1cc(NC(C)CCCN)c2ncccc2c1 (stereo unspecified) | inactive

Structure (SMILES) | IC50
CC(=O)N(C)c1ccc(N=Cc2cc3c(cc2[N+](=O)[O-])OCO3)cc1 | inactive
COc1ccccc1N=Nc1c(O)[nH]c(=S)[nH]c1=O | inactive
CCCCn1c(NS(=O)(=O)c2ccccc2)c(S(=O)(=O)c2ccc(C)cc2)c2nc3ccccc3nc21 | > 115 µM (inactive)
O=C1C=C(N2CC2)c2ccccc2C1=O | 8.1 µM
CC(=O)N(/N=C1\Sc2ccccc2C1=O)c1cccc(C)c1 | inactive
CC(C)=CCC1=C(OCC(=O)O)C(=O)c2ccccc2C1=O | inactive
CCC(CNc1cc(OC)cc2cccnc12)NC1CCCCC1 (stereo unspecified) | 6.96 µM
CC1(OC(=O)C2CCCC2)C(=O)C=C2C=C(c3ccsc3)N(CCCCO)C=C2C1=O (stereo unspecified) | inactive
CC1(C)C=C2C(=NN(c3ccccc3)C(N)=C2C#N)CO1 | inactive
CC(NC1=CC(=O)c2cccnc2C1=O)C(O)c1ccccc1 (stereo unspecified) | 4.33 µM
CC(C)(C)c1cc[n+](C2=C([O-])c3ccccc3C(=O)/C2=N\S(=O)(=O)c2cccs2)cc1 | inactive
O=C1NNC(c2ccccc2)=N/C1=C\c1ccccc1Cl | inactive
Cc1ccccc1NC1=C/C(=N\S(=O)(=O)c2ccc(C(=O)O)cc2)c2ccccc2C1=O | 0.536 µM
O=C(COC(=O)c1ccc([N+](=O)[O-])s1)Nc1ccc(Cl)cn1 | > 115 µM (inactive)
O=C1OC(Nc2cc(Br)cc3cccnc23)c2ccccc21 (stereo unspecified) | 5.44 µM
Cc1ccccc1-c1cc2c(nn1)-c1ccccc1C2=O | 2.23 µM
NC1=C(Br)C(=O)c2ccccc2C1=O | 6.65 µM
COc1cc(C(=O)c2nccc3cc(OC)c(OC)cc23)c([N+](=O)[O-])cc1OC | 4.04 µM
NC1=CC(=O)C(=O)c2cccnc21 | 4.94 µM
O=C(NC1=C(NC2CCS(=O)(=O)C2)C(=O)c2ccccc2C1=O)c1ccccc1 (stereo unspecified) | inactive
COc1cc(C=c2c3ccccc3n3c2cc(-c2ccccc2)[n+]3C)cc(OC)c1OC | 5.77 µM

Structure (SMILES) | IC50
O=C(NC1=CC(=O)c2ccccc2C1=O)c1ccccc1 | inactive
O=C(O)c1ccc(NC2=C(n3nnc4ccccc43)C(=O)c3ccccc3C2=O)cc1 | inactive
Cc1ccc(Cl)cc1NC1=C/C(=N\S(=O)(=O)c2cccs2)c2ccccc2C1=O | 2.37 µM
O=C1C(Nc2ccccc2)=C(N2CCCCC2)C(=O)c2ccccc21 | inactive
CCc1cc[n+](C2=C([O-])c3ccccc3C(=O)/C2=N\S(=O)(=O)c2cccs2)cc1 | inactive
O=C1C=C(N2CCOCC2)c2ccccc2C1=O | inactive
Cc1nc2c(o1)C(=O)c1ccccc1C2=Nc1ccccc1 | inactive
CC(=O)N(C1=C(N)C(=O)c2ccccc2C1=O)c1ccccc1 | inactive
O=[N+]([O-])c1c(Nc2ccccn2)cc(Cl)c2nonc12 | inactive
O=S(=O)(c1ccc2nc(-c3ccco3)c(-c3ccco3)nc2c1)N1CCOCC1 | > 115 µM (inactive)
Oc1c(C=Nc2cccc3nsnc23)ccc2ccccc12 | inactive
CCOC(=O)N=Nc1c2ccccc2c2nc3no[nH]c3nc12 | 7.75 µM
COc1ccc2noc3c2c1C(=O)c1ccccc1-3 | 6.28 µM
Cc1cc(=O)c2c(o1)C(=O)c1occc1C2=O | inactive
CC1CCCC(NC(=O)COC(=O)c2ccc([N+](=O)[O-])s2)C1C (stereo unspecified) | inactive
O=C1Cc2ccccc2C(=O)N1Cc1ccccc1 | 1.3 µM
O=C1C=C(N2CCCCC2)c2ccccc2C1=O | inactive
Cc1ccc(N2C(=O)[C@@H]3[C@H](C2=O)C2c4ccccc4C=CN2[C@@H]3C(=O)c2ccco2)cc1 (stereo partly specified) | 5.2 µM
NS(=O)(=O)c1ccc(NC2=CC(=O)C(=O)c3ccccc32)cc1 | inactive
O=C1C(SCCO)=C(SCCO)C(=O)c2ccccc21 | 7.34 µM
COc1cc2c(cc1O)[C@@H]1Cc3ccc(OC)c(O)c3CN1CC2 | inactive

Structure (SMILES) | IC50
CCCCCCCCCCCCCCCC[n+]1cccc2ccccc21 | 4.2 µM
CN1CCN(C2=C(Cl)C(=O)c3ccccc3C2=O)CC1 | 1.07 µM
O=C1C(=NO)CCc2ccccc21 | inactive
COc1cc(NCCCC(C)N)c2ncccc2c1 (stereo unspecified) | 4.6 µM
CCn1nc(/C=C/c2ccccc2)nc2c(=O)n(C)c(=O)nc1-2 | 0.487 µM
NC(=S)N=Nc1c(O)cc(O)c2[nH]c(=O)ccc12 | inactive
Cc1oc2c(c1C(=O)N1CCOCC1)C(=O)c1ccccc1C2=O | inactive
COc1ccc(NC(=S)Nc2ccc3nsnc3c2)cc1 | 6.9 µM
O=C(c1ccccc1)c1coc2c1C(=O)c1ccccc1C2=O | inactive
C[n+]1c2ccccc2nc2ccc(NCCO)cc21 | inactive
O=S(=O)(Nc1cc(Sc2ncn[nH]2)c(O)c2ccccc12)c1ccccc1 | 2.16 µM
NS(=O)(=O)c1ccc(NC(=O)COC(=O)c2ccc([N+](=O)[O-])s2)cc1 | inactive
Cc1c(C=O)c(Cl)n(C)c(=O)c1C#N | inactive
CC1=C(SCc2ccccc2)C(=O)c2ccccc2C1=O | 9.91 µM
CCc1ccc(S(=O)(=O)/N=C2\C=C(Nc3cccc(C(=O)O)c3)C(=O)c3ccccc32)cc1 | 2.51 µM
COc1ccc(C(C[N+](=O)[O-])c2c(C)[nH]n(-c3ccccc3)c2=O)cc1 (stereo unspecified) | > 115 µM (inactive)
NC1=C(Br)C(=O)c2ncccc2C1=O | 1.1 µM
O=S(=O)(N=C1C=CC(=NS(=O)(=O)c2ccccc2)c2ccccc21)c1ccccc1 | inactive
